These results are taken from patent publication US9907759B2, “Sildenafil-free base-containing film preparation and method for producing same” (CTC Bio, Inc., priority 2011, dated 2018).

Structures can show the parent of a compound that is named as a salt.

What all share (format): physicochemical
Data set [1] in a line: Solubility in water.
Data set [2] is described as follows: Particle size of sildenafil free base, Mastersizer 2000 (Malvern), wet method. The protocol:
(§1) A preparative experimentation was conducted to analyze the particle size of a sildenafil free base and the characteristics thereof in several film preparations depending on the rpm conditions (3,000 or 5,000 rpm) of a homogenizer (AGI homomixer) and homogenization times (0, 10 and 30 minutes), the film preparations having the same compositions as the Examples shown in Table 6.
First, the raw materials of a sildenafil free base before homogenization were measured for their particle size using Mastersizer 2000 (Malvern) by a wet method, and the results thereof are shown in Table 1. The same procedure was repeated three times.
The particle size changes of a sildenafil free base depending on homogenization times were measured under the condition of a larger scale than the previous experimentation. The homogenization was carried out using a homogenizer (IKA) at 5,000 rpm with increasing homogenization time. The sildenafil free base-containing film preparations used in the homogenization had the same compositions as the Examples shown in Table 6.
(§2) In order to prepare films containing sildenafil free base particles having a smaller size, the film preparation having the same compositions as the Example 8 shown in Table 6 were subject to homogenization using a homogenizer (IKA) at 10,000 rpm for 1 hour.

Data set [3] is described as follows: Visual characteristics of the film prepared (particles, transparency). The protocol:
as §1, §2

[4] abbreviates: after homogenization 3000 rpm, 30 minutes.
Where [5] appears, read: after homogenization 5000 rpm, 10 minutes.
The mark [6] stands for this setting: sildenafil free base raw material before homogenization (Initial).

Consider `CCCc1nn(C)c2c(=O)[nH]c(-c3cc(S(=O)(=O)N4CCN(C)CC4)ccc3OCC)nc12` [sildenafil citrate], for which the Solubility in water entry in data set [1] is reported as “can dissolve in water”.

Consider `CCCc1nn(C)c2c(=O)[nH]c(-c3cc(S(=O)(=O)N4CCN(C)CC4)ccc3OCC)nc12` [sildenafil free base], for which the “Particle size D10” value in data set [2] (setting [4]) is recorded as 8.91 μm; in data set [2] (setting [5]), 8.59 μm. Besides, the “Particle size D90” value in data set [2] (setting [4]) stood at 109.66 μm; in data set [2] (setting [5]), 85.99 μm. The molecule further yielded a D10 in data set [2] (setting [6]) of 13.48 μm. Also, in data set [2] (setting [6]), the D90 stood at 281.74 μm. In addition, the Solubility in water entry in data set [1] is reported as “practically insoluble in water”. Moreover, the Characteristics result in data set [3] (3000 rpm, 30 minutes) is “Particles were visually observed”; in data set [3] (5000 rpm, 10 minutes) it was “Particles were scarcely observed”.
